In patent publication US12551481B2, “Molecular targets for addiction” (The Jackson Laboratory, priority 2019, dated 2026):

Tested on: Htr1d expression
Assay: Htr1d expression in founder strains of CC/DO mice after repeated exposure to cocaine or sham (saline)
Format: in vivo, mouse
Conditions: CAST/EiJ males and 129S1/SvlmJ males; repeated exposure over days
From the text: Identification of a target for addiction treatment was undertaken using Diversity Outbred (DO) stock of mice and the eight founding inbred strains used to generate the DO stock, which are a genetically diverse collect of mice used to validate […] trait loci (QTLs) linked to disease susceptibility, drug resistance, or behavioral phenotypes (see, e.g., Saul et al., 2019, Trends in Genetics (PMID: 31133439)). DO mice were developed by random outcross mating of 160 incipient Collaborative Cross recombinant inbred mouse lines, which were created by crossing eight unique and genetically diverse inbred mouse strains. […] Upregulation after cocaine exposure was also observed in PWK/PhJ males.

COC(=O)[C@H]1[C@@H](OC(=O)c2ccccc2)C[C@@H]2CC[C@H]1N2C [cocaine]
Htr1d expression differences, cocaine compared to sham: 2 fold
